By DC50 is commonly meant the concentration at which degradation of the target reaches its halfway point. A low value points to degradation at low concentration. The term Dmax denotes the largest share of the target that was removed. A lower Dmax goes with shallow degradation.

We go through 9 compounds from patent US20260317324A1, “BIFUNCTIONAL COMPOUNDS FOR DEGRADING BRAF VIA UBIQUITIN PROTEOSOME PATHWAY” (Nurix Therapeutics, Inc., priority 2023, published 2026).

Format in all cases: cell-based
In experiment [1] the target is T1, BRAF G466V (Homo sapiens, UniProt P15056, G466V).
T1 construct: Horizon Discovery (HCT-116 BRAF−/− cells); host or cells: HCT-116 BRAF−/− cells, clone 8, lentiviral transduction
T1 sequence (P15056 whole entry G466V): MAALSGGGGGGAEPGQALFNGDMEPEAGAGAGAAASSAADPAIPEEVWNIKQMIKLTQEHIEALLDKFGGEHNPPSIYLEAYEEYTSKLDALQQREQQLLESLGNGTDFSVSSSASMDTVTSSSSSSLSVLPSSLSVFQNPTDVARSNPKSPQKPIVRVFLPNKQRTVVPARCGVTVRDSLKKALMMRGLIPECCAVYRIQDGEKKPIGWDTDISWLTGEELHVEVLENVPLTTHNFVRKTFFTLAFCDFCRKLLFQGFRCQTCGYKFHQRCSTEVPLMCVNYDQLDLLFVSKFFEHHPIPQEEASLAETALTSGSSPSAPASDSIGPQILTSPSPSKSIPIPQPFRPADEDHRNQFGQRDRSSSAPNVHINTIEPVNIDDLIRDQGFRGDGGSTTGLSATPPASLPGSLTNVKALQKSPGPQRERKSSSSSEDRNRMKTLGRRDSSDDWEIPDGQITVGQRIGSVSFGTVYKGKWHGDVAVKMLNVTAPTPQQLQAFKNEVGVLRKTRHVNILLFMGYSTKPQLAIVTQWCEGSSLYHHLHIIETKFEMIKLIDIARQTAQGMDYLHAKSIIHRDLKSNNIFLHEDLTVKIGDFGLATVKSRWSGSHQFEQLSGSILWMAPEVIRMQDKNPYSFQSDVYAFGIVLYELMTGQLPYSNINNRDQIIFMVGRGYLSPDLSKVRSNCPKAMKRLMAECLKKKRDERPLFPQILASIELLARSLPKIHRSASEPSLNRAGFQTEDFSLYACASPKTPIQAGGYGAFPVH
In words: BRAF HiBiT degradation assay, C-terminal HiBiT-tagged BRAF G466V overexpressed in HCT-116 BRAF−/− cells (clone 8), Nano-Glo HiBiT Lytic assay. A digest of the protocol: (§1)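 HCT-116 BRAF−/− cells stably expressing the tagged mutant were seeded at 3,000 cells/well and grown 24 h at 37 °C before an 11-point half-log series from 1 μM to 0.01 nM, run in duplicate at 0.2% DMSO. Lytic HiBiT luminescence gave % protein remaining versus DMSO controls; DC50 was the fitted concentration at 50%.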
A general note: The HiBiT peptide binds its large partner to form an active luciferase.

The target in experiment [2] is T2, BRAF V600E (Homo sapiens, UniProt P15056, V600E).
T2 construct: endogenous C-terminal HiBiT fusion tag on BRAF V600E allele; endogenous in cells; host or cells: A375 clone 1F10 (CRISPR-Cas9 knock-in of the HiBiT tag; parental A375 from ATCC)
T2 sequence (P15056 whole entry V600E, the tested form may be a part): as the sequence (P15056 whole entry G466V) above, with V466G, V600E counted along it
Put plainly: BRAF HiBiT degradation assay, C-terminal HiBiT-tagged BRAF V600E A375 cells (clone 1F10), Nano-Glo HiBiT Lytic assay. To be noted: for Dmax: A-375. In outline: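 A375 cells with CRISPR knock-in C-terminal HiBiT on endogenous BRAF V600E (clone 1F10) were seeded and cultured 24 h at 37 °C, then dosed with an 11-point half-log series (1 μM to 0.01 nM, duplicate, 0.2% DMSO). Lytic HiBiT luminescence gave % protein remaining; DC50 was the fitted concentration at 50%.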

Experiment [3] deals with T3, BRAF D594G (Homo sapiens, UniProt P15056, D594G).
T3 construct: Horizon Discovery (HCT-116 BRAF−/− cells); host or cells: HCT-116 BRAF−/− cells, clone 63, lentiviral transduction
T3 sequence (P15056 whole entry D594G): as the sequence (P15056 whole entry G466V) above, with V466G, D594G counted along it
In words: BRAF HiBiT degradation assay, C-terminal HiBiT-tagged BRAF D594G overexpressed in HCT-116 BRAF−/− cells (clone 63), Nano-Glo HiBiT Lytic assay. A digest of the protocol: as §1

The target of experiment [4] is T4, BRAF G469A (Homo sapiens, UniProt P15056, G469A).
T4 construct: Horizon Discovery (HCT-116 BRAF−/− cells); host or cells: HCT-116 BRAF−/− cells, clone 34, lentiviral transduction
T4 sequence (P15056 whole entry G469A): as the sequence (P15056 whole entry G466V) above, with V466G, G469A counted along it
In words: BRAF HiBiT degradation assay, C-terminal HiBiT-tagged BRAF G469A overexpressed in HCT-116 BRAF−/− cells (clone 34), Nano-Glo HiBiT Lytic assay. A digest of the protocol: as §1

The mark [5] stands for this setting: BRAF G466V (Class 3), HCT-116 BRAF−/− cells, DC50 at 50% degradation.
The mark [6] stands for this setting: BRAF G466V (Class 3), HCT-116 BRAF−/− cells, observed Dmax relative to DMSO control.
Where [7] appears, read: A375 (BRAF V600E, Class 1), DC50 at 50% degradation.
Setting [8] is: A375 (BRAF V600E, Class 1), observed Dmax, % protein degraded relative to DMSO control.
Setting [9] is: BRAF D594G (Class 3), HCT-116 BRAF−/− cells, DC50 at 50% degradation.
The mark [10] stands for this setting: BRAF D594G (Class 3), HCT-116 BRAF−/− cells, observed Dmax relative to DMSO control.
Setting [11] is: BRAF G469A (Class 2), HCT-116 BRAF−/− cells, DC50 at 50% degradation.
Setting [12] is: BRAF G469A (Class 2), HCT-116 BRAF−/− cells, observed Dmax relative to DMSO control.
The mark [13] stands for this setting: BRAF G466V, DC50 at 50%: fitted conc. at Y=50.
[14] abbreviates: HCT-116, BRAF G466V, percentage protein degraded at maximal compound effect relative to DMSO.
Setting [15] is: A375 (BRAF V600E), DC50 at 50%: fitted conc. at Y=50.
Setting [16] is: A375 (BRAF V600E), percentage protein degraded at maximal compound effect relative to DMSO.
The mark [17] stands for this setting: BRAF D594G, DC50 at 50%: fitted conc. at Y=50.
[18] abbreviates: HCT-116, BRAF D594G, percentage protein degraded at maximal compound effect relative to DMSO.
[19] abbreviates: Class 2, BRAF G469A, DC50 at 50%: fitted conc. at Y=50.
The mark [20] stands for this setting: HCT-116, Class 2, BRAF G469A, percentage protein degraded at maximal compound effect relative to DMSO.

For the compound `CCCS(=O)(=O)Nc1cccc(-c2nc(C3CCC4(CC3)CCN(C(=O)C3CCN(c5ccc(C6CCC(=O)NC6=O)cn5)CC3)CC4)sc2-c2ccnc(N)n2)c1F` (racemic) [Compound 246, Rac-N-{3-[5-(2-aminopyrimidin-4-yl)-2-[3-(1-{5-[(3R)-2,6-dioxopiperidin-3-yl]pyridin-2-yl}piperidine-4-carbonyl)-3-azaspiro[5.5]undecan-9-yl]-1,3-thiazol-4-yl]-2-fluorophenyl}propane-1-sulfonamide], the DC50 is > 500 nM in experiment [1] (setting [5]), 10 to 50 nM in experiment [2] (setting [7]), > 500 nM in experiment [3] (setting [9]) and > 500 nM in experiment [4] (setting [11]). In addition, the Dmax was < 30% in experiment [1] (setting [6]), > 70% in experiment [2] (setting [8]), 30 to 70% in experiment [3] (setting [10]) and < 30% in experiment [4] (setting [12]).

As for `O=C1CC[C@H](c2ccc(N3CCC(CN4CCN(c5ccc(-n6cc(-c7cc(Cl)cc(NS(=O)(=O)N8CC[C@@H](F)C8)c7F)c(-c7ccncc7)n6)cc5)CC4)CC3)nc2)C(=O)N1` [Compound 264, (R)—N-(5-chloro-3-(1-(4-(4-((1-(5-((R)-2,6-dioxopiperidin-3-yl)pyridin-2-yl)piperidin-4-yl)methyl)piperazin-1-yl)phenyl)-3-(pyridin-4-yl)-1H-pyrazol-4-yl)-2-fluorophenyl)-3-fluoropyrrolidine-1-sulfonamide], the DC50 in experiment [1] (setting [5]), in experiment [2] (setting [7]), in experiment [3] (setting [9]) and in experiment [4] (setting [11]) was < 10 nM throughout. Further, the Dmax in experiment [1] (setting [6]), in experiment [2] (setting [8]), in experiment [3] (setting [10]) and in experiment [4] (setting [12]) was > 70% in each case.

As for `CCCS(=O)(=O)Nc1cccc(-c2nc(C(C)(C)C)sc2-c2ccnc(Nc3ccc(C4CCN(CC5CCN(c6ccc(C7CCC(=O)NC7=O)cn6)CC5)CC4)cc3)n2)c1F` (racemic) [Compound 35, Rac-N-[3-(2-tert-butyl-5-{2-[(4-{1-[(1-{5-[(3R)-2,6-dioxopiperidin-3-yl]pyridin-2-yl}piperidin-4-yl)methyl]piperidin-4-yl}phenyl)amino]pyrimidin-4-yl}-1,3-thiazol-4-yl)-2-fluorophenyl]propane-1-sulfonamide], the DC50 in experiment [1] (setting [13]) is > 500 nM; in experiment [2] (setting [15]) it was < 10 nM; in experiment [3] (setting [17]), > 500 nM; in experiment [4] (setting [19]), 10 to 50 nM. In addition, the Dmax in experiment [1] (setting [14]) was 30 to 70%; in experiment [2] (setting [16]), > 70%; in experiment [3] (setting [18]), 30 to 70%; in experiment [4] (setting [20]), < 30%.

Turning to `O=C1CC[C@H](c2ccc(N3CCC(CN4CCN(c5ccc(-n6cc(-c7cc(Cl)cc(NS(=O)(=O)N8CC[C@@H](F)C8)c7F)c(-c7ccncc7)n6)c(F)c5)CC4)CC3)nc2)C(=O)N1` [Compound 334, (3R)—N-{5-chloro-3-[1-(4-{4-[(1-{5-[(3R)-2,6-dioxopiperidin-3-yl]pyridin-2-yl}piperidin-4-yl)methyl]piperazin-1-yl}-2-fluorophenyl)-3-(pyridin-4-yl)-1H-pyrazol-4-yl]-2-fluorophenyl}-3-fluoropyrrolidine-1-sulfonamide], the DC50 in experiment [1] (setting [5]) was < 10 nM; in experiment [2] (setting [7]), < 10 nM; in experiment [3] (setting [9]) it was < 10 nM; in experiment [4] (setting [11]) it was 10 to 50 nM. Moreover, the Dmax in experiment [1] (setting [6]), in experiment [2] (setting [8]), in experiment [3] (setting [10]) and in experiment [4] (setting [12]) was > 70% each time.

With `O=C1CCC(c2ccc(N3CCC(F)(CN4CCN(c5ccc(-n6cc(-c7cc(Cl)cc(NS(=O)(=O)N8CCCC8)c7F)c(-c7ccncc7)n6)cc5)CC4)CC3)cc2)C(=O)N1` (racemic) [Compound 284, Rac-N-{5-chloro-3-[1-(4-{4-[(1-{4-[(3R)-2,6-dioxopiperidin-3-yl]phenyl}-4-fluoropiperidin-4-yl)methyl]piperazin-1-yl}phenyl)-3-(pyridin-4-yl)-1H-pyrazol-4-yl]-2-fluorophenyl}pyrrolidine-1-sulfonamide], the DC50 was < 10 nM in experiment [1] (setting [5]), 10 to 50 nM in experiment [2] (setting [7]), < 10 nM in experiment [3] (setting [9]) and 10 to 50 nM in experiment [4] (setting [11]). In addition, the Dmax in experiment [1] (setting [6]), in experiment [2] (setting [8]), in experiment [3] (setting [10]) and in experiment [4] (setting [12]) was > 70% each time.

Turning to `O=C1CCC(c2ccc(N3CCC(CN4CCN(c5ccc(-n6cc(-c7cc(C(F)F)cc(NS(=O)(=O)N8CCCC8)c7F)c(-c7ccncc7)n6)cc5)CC4)CC3)nc2)C(=O)N1` (racemic) [Compound 350, Rac-N-[5-(difluoromethyl)-3-[1-(4-{4-[(1-{5-[(3R)-2,6-dioxopiperidin-3-yl]pyridin-2-yl}piperidin-4-yl)methyl]piperazin-1-yl}phenyl)-3-(pyridin-4-yl)-1H-pyrazol-4-yl]-2-fluorophenyl]pyrrolidine-1-sulfonamide], the DC50 in experiment [1] (setting [5]), in experiment [2] (setting [7]), in experiment [3] (setting [9]) and in experiment [4] (setting [11]) was < 10 nM in each case. Besides, the Dmax in experiment [1] (setting [6]), in experiment [2] (setting [8]), in experiment [3] (setting [10]) and in experiment [4] (setting [12]) was > 70% throughout.

Turning to `CCCS(=O)(=O)Nc1cccc(-c2nc(C3CCC4(CC3)CCN(C[C@H]3CC[C@H](Oc5ccc(C6CCC(=O)NC6=O)cn5)CC3)CC4)sc2-c2ccnc(N)n2)c1F` (mixture of isomers) [Compound 257, N-{3-[5-(2-aminopyrimidin-4-yl)-2-(3-{[(1r,4r)-4-({5-[(3RS)-2,6-dioxopiperidin-3-yl]pyridin-2-yl}oxy)cyclohexyl]methyl}-3-azaspiro[5.5]undecan-9-yl)-1,3-thiazol-4-yl]-2-fluorophenyl}propane-1-sulfonamide], the DC50 in experiment [1] (setting [5]) was > 500 nM; in experiment [2] (setting [7]), 10 to 50 nM; in experiment [3] (setting [9]), > 500 nM; in experiment [4] (setting [11]), > 500 nM. Moreover, the Dmax in experiment [1] (setting [6]) was < 30%; in experiment [2] (setting [8]), > 70%; in experiment [3] (setting [10]) it was < 30%; in experiment [4] (setting [12]) it was < 30%.

In the case of `O=C1CCC(c2ccc(N3CCC(CN4CCN(c5ccc(-n6cc(-c7cc(Cl)cc(NS(=O)(=O)N8CCCC8)c7F)c(-c7ccncc7)n6)nc5)CC4)CC3)nc2)C(=O)N1` (racemic) [Compound 288, Rac-N-{5-chloro-3-[1-(5-{4-[(1-{5-[(3R)-2,6-dioxopiperidin-3-yl]pyridin-2-yl}piperidin-4-yl)methyl]piperazin-1-yl}pyridin-2-yl)-3-(pyridin-4-yl)-1H-pyrazol-4-yl]-2-fluorophenyl}pyrrolidine-1-sulfonamide], the DC50 in experiment [1] (setting [5]), in experiment [2] (setting [7]), in experiment [3] (setting [9]) and in experiment [4] (setting [11]) was < 10 nM in each case. For the same compound, the Dmax in experiment [1] (setting [6]), in experiment [2] (setting [8]), in experiment [3] (setting [10]) and in experiment [4] (setting [12]) was > 70% in each case.

Regarding `CCCS(=O)(=O)Nc1cccc(-c2nc(C(C)(C)C)sc2-c2ccnc(NC3CC4(CCN(C(=O)CN5CCC(c6ccc(NC7CCC(=O)NC7=O)cc6)CC5)CC4)C3)n2)c1F` (racemic) [Compound 131, Rac-N-[3-(2-tert-butyl-5-{2-[(7-{2-[4-(4-{[(3R)-2,6-dioxopiperidin-3-yl]amino}phenyl)piperidin-1-yl]acetyl}-7-azaspiro[3.5]nonan-2-yl)amino]pyrimidin-4-yl}-1,3-thiazol-4-yl)-2-fluorophenyl]propane-1-sulfonamide], the DC50 is > 500 nM in experiment [1] (setting [13]), 10 to 50 nM in experiment [2] (setting [15]), > 500 nM in experiment [3] (setting [17]) and > 500 nM in experiment [4] (setting [19]). The Dmax in experiment [1] (setting [14]) is 30 to 70%; in experiment [2] (setting [16]), > 70%; in experiment [3] (setting [18]) it was < 30%; in experiment [4] (setting [20]) it was < 30%.
